Reference: US8835472B2, “Compounds, pharmaceutical compositions and uses thereof” (Boehringer Ingelheim International GmbH, priority 2010, dated 2014)
pIC50: −log10 of the molar value.

target: human ACC2 (Homo sapiens (Human), UniProt O00763); experiment: ACC2 assay, spectrophotometric 384 well assay (NADH-linked, coupled lactate dehydrogenase/pyruvate kinase reaction); type: biochemical; conditions: hACC2 construct lacking the 128 N-terminal amino acids; 25° C., 340 nm over 15 minutes
Protocol: Spectrophotometric 384 Well Assay
Malonyl CoA formation by acetyl CoA carboxylases is stoichometrically linked to the consumption of ATP. ACC2 activity is measured in a NADH-linked kinetic method measuring ADP generated during the ACC reaction using a coupled lactate dehydrogenase/pyruvate kinase reaction.
For biological testing, a human ACC2 construct which lacks the 128 amino acids at the N-terminus for increased solubility (nt 385-6966 in Genbank entry AJ575592) is cloned. The protein is then expressed in insect cells using a baculoviral expression system. Protein purification is performed by anion exchange.
All compounds are dissolved in dimethyl sulfoxide (DMSO) to a concentration of 10 mM.
Assay reactions are then carried out in 384-well plates, with hACC2 in an appropriate dilution and at final assay concentrations (f.c.) of 100 mM Tris (pH 7.5), 10 mM trisodium citrate, 25 mM KHCO3, 10 mM MgCl2, 0.5 mg/mL BSA, 3.75 mM reduced L-glutathione, 15 U/mL lactate dehydrogenase, 0.5 mM phosphoenolpyruvate, 15 U/mL pyruvate kinase, compounds at different concentrations at final DMSO concentrations of 1%.
The enzymatic reaction is then started by addition of a mixture of NADH, acetyl Coenzyme A (both 200 μM f.c.) and ATP (500 uM f.c.). The decrease of the optical density (slope S) is then determined at 25° C. at a wavelength of 340 nm over 15 minutes in a spectrophotometric reader.
Each assay microtiter plate contains wells with vehicle instead of compound as controls for the non-inhibited enzyme (100% CTL; ‘HIGH’) and wells without acetyl-CoA as controls for non-specific NADH degradation (0% CTL; ‘LOW’).
The slope S is used for calculation of % CTL=(S(compound)−S(‘LOW’))/(S(‘HIGH’)−S(‘LOW’))*100. Compounds will give values between 100% CTL (no inhibition) and 0% CTL (complete inhibition).
For IC50 value determination, the sample slope in the presence of the test compound after subtraction of the low controls (S(compound)−S(‘LOW’)) are used. An IC50 value is derived from the compound slopes at different dosages after subtraction of the low controls (S(compound)−S(‘LOW’)) by non-linear regression curve fitting (equation y=(A+((B−A)/(1+((C/x)^D))))).

Chain of human ACC2 (O00763 129-2458): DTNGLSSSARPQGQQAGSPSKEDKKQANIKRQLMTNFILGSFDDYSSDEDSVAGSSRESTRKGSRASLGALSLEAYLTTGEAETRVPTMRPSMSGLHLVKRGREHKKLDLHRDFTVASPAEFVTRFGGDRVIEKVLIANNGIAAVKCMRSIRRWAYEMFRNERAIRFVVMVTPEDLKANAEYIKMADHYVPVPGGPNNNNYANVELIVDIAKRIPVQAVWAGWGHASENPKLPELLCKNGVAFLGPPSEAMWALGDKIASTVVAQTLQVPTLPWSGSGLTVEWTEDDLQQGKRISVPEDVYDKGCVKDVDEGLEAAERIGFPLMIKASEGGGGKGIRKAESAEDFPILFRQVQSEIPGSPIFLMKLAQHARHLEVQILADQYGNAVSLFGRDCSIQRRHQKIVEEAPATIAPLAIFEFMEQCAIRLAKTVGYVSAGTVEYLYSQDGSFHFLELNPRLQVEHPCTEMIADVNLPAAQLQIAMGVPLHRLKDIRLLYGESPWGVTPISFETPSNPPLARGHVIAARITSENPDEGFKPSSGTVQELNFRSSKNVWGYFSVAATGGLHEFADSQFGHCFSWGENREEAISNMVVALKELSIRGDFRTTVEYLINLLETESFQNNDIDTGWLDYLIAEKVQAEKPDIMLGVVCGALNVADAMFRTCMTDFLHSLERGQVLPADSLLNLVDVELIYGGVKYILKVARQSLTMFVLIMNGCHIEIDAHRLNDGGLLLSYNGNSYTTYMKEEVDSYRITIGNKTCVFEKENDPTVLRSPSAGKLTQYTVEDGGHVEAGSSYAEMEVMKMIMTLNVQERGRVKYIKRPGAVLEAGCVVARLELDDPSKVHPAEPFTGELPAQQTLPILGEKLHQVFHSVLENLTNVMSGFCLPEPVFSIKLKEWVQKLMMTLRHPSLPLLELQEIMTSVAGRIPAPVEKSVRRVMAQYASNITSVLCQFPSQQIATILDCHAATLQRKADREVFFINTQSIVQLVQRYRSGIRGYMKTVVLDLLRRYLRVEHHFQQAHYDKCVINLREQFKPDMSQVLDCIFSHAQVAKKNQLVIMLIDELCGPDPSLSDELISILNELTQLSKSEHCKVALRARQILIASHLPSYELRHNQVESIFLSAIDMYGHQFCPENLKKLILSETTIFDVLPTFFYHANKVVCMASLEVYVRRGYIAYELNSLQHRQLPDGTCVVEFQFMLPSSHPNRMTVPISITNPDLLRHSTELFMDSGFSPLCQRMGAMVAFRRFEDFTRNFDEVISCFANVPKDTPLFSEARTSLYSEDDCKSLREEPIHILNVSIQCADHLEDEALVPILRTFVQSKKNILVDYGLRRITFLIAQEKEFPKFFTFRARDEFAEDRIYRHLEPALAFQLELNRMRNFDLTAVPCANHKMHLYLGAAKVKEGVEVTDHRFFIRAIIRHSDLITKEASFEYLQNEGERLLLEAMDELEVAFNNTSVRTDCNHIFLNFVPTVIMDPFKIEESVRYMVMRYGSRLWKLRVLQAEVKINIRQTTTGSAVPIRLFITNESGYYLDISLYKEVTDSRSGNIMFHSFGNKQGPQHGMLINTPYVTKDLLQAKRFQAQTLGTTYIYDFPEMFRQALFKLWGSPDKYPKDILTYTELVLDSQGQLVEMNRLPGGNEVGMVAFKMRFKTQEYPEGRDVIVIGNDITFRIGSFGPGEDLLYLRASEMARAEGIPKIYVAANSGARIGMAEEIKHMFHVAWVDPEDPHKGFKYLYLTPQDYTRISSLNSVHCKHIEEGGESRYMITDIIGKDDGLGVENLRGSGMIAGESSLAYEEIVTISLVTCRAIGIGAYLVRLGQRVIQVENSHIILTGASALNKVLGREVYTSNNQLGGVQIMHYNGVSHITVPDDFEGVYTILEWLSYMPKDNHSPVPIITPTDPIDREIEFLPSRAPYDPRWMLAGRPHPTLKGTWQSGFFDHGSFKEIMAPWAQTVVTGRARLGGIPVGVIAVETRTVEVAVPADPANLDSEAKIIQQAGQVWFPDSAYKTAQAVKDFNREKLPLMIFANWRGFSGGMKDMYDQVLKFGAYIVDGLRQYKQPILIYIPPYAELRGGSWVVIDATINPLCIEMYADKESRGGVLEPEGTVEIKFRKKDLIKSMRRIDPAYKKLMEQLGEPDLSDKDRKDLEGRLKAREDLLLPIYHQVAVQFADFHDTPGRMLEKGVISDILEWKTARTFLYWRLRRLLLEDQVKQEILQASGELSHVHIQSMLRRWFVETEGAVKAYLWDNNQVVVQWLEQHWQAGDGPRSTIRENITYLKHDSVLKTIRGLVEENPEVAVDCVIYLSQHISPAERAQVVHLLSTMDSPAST

SMILES | pIC50
CC(CNC(=O)c1cn[nH]c1)c1ccc(C#Cc2cnc(OC3CCC3)nc2)cc1 (stereo not shown) [Example 4.77] | 6.34
CCOc1ccc(C#Cc2ccc(CC(C)NC(=O)C3CC3)cc2)cc1 (stereo not shown) [Example 4.4] | 6.82
COc1ccc(-c2cnc(C#Cc3ccc(CC(C)NC(C)=O)cc3)cn2)cc1 (stereo not shown) [Example 1.13] | 5.96
CC(=O)NC(C)Cc1ccc(C#Cc2ccc(OCC(C)C)cc2)cc1 (stereo not shown) [Example 2.17] | 6.96
CC(=O)NC(C)Cc1ccc(C#Cc2ccc(OC(C)C)nn2)cc1 (stereo not shown) [Example 2.86] | 6.03
C=CC(=O)NC(C)Cc1ccc(C#Cc2ccc(OCC)cc2)cc1 (stereo not shown) [Example 4.8] | 6.34
CCOc1ccc(C#Cc2ccc(CC(C)NC(=O)CF)cc2)cc1 (stereo not shown) [Example 4.31] | 6.39
C/C=C/C(=O)NC(C)Cc1ccc(C#Cc2ccc(OCC)cc2)cc1 (stereo not shown) [Example 4.3] | 6.66
CCOc1ccc(C#Cc2ccc(CC(C)NC(=O)C3CNC3)cc2)cc1 (stereo not shown) [Example 4.34] | 6.22
CCCS(=O)(=O)NC(C)Cc1ccc(C#Cc2ccc(OCC)cc2)cc1 (stereo not shown) [Example 5.3] | 5.92
CCCCC(=O)NC(C)Cc1ccc(C#Cc2ccc(OCC)cc2)cc1 (stereo not shown) [Example 4.25] | 6.27
CC(=O)NC(C)(C)c1ccc(C#Cc2ccc(OC(C)C)nc2)cc1 [Example 2.39] | 4.67
CC(=O)NCC(C)(C)c1ccc(C#Cc2cnc(NC3CCC3)nc2)cc1 [Example 2.33] | 6.57
CC(=O)NC(C)Cc1ccc(C#Cc2ccc3c(c2)OCCO3)cc1 (stereo not shown) [Example 3.14] | 6.66
CC(=O)NC(C)Cc1ccc(C#Cc2cnc(-c3ccc(Cl)cc3)cn2)cc1 (stereo not shown) [Example 1.14] | 6.70
CC(Cc1ccc(C#Cc2ccc(-c3ccc(F)cc3)cn2)cc1)NC(=O)C1CC1 (stereo not shown) [Example 1.31] | 6.35
CCOc1ccc(C#Cc2ccc(CC(C)NC(=O)N(C)C)cc2)cc1 (stereo not shown) [Example 7.2] | 6.72
CCOc1ccc(C#Cc2ccc(CC(C)NC(=O)C3CC(=O)N(C)C3)cc2)cc1 (stereo not shown) [Example 4.62] | 5.43
COc1cc(C#Cc2ccc(CC(C)NC(C)=O)cc2)ccn1 (stereo not shown) [Example 2.94] | 6.59
CC(=O)NC(C)Cc1ccc(C#Cc2ccc(Cl)cc2)cc1 (stereo not shown) [Example 1.1, N-(1-(4-((4-Chlorophenyl)ethynyl)phenyl)propan-2-yl)acetamide] | 6.28
CCOc1ccc(C#Cc2ccc(C(C)NC(=O)c3cncs3)cc2)cc1 (stereo not shown) [Example 4.53] | 6.43
CCOc1ccc(C#Cc2ccc(CC(C)NC(=O)C(C)C)cc2)cc1 (stereo not shown) [Example 4.2] | 6.72
COc1c(F)cc(C#Cc2ccc(CC(C)NC(C)=O)cc2)cc1F (stereo not shown) [Example 3.4] | 6.25

Second part, the molecule after the results:

pIC50 | SMILES
5.92 | CCN(CC)c1ncc(C#Cc2ccc(CC(C)NC(C)=O)cc2)cn1 (stereo not shown) [Example 13.23]
5.80 | CC(=O)NC(C)Cc1ccc(C#Cc2cccc(C(=O)N3CCC(C)(C)CC3)c2)cc1 (stereo not shown) [Example 8.37]
6.72 | CCCOc1ncc(C#Cc2ccc(CC(C)NC(=O)N(C)C)cc2)cn1 (stereo not shown) [Example 12.30]
6.74 | CC(=O)NC(C)Cc1ccc(C#Cc2ccc(OCC(C)F)cc2)cc1 (stereo not shown) [Example 9.39]
6.28 | CCN(C)c1nccc(C#Cc2ccc(CC(C)NC(C)=O)cc2)n1 (stereo not shown) [Example 11.4]
6.42 | CCOc1ncc(C#Cc2ccc(CC(C)NC(C)=O)cc2)cn1 (stereo not shown) [Example 12.17]
7.00 | CC(=O)NC(C)Cc1ccc(C#Cc2ccc(OC3CCCC3)cc2)cc1 (stereo not shown) [Example 9.2]
6.29 | CC(=O)NC(C)Cc1ccc(C#Cc2ccnc(N3CCC(C(F)(F)F)CC3)n2)cc1 (stereo not shown) [Example 11.18]
4.88 | CCOc1ccc(C#Cc2ccc(C(C)NC(=O)OC)cc2)cc1 (stereo not shown) [Example 29.1, {1-[4-(4-Ethoxy-phenylethynyl)-phenyl]ethyl}-carbamic acid methyl ester]
6.66 | CSc1ccc(C#Cc2ccc(CC(C)NC(C)=O)cc2)cc1 (stereo not shown) [Example 23.10]
6.14 | CC(=O)NC(C)Cc1ccc(C#Cc2ccnc(N3CCCCC3C)n2)cc1 (stereo not shown) [Example 11.39]
6.46 | CC(=O)NC(C)Cc1ccc(C#Cc2ccnc(N(C)CCC(C)(C)C)n2)cc1 (stereo not shown) [Example 11.32]
6.42 | CC(=O)NC(C)Cc1ccc(C#Cc2ccnc(N3CCC4(CCCC4)C3)n2)cc1 (stereo not shown) [Example 11.28]
7.05 | CC(=O)NC(C)Cc1ccc(C#Cc2cnc(OC3CCC3)nc2)cc1 (stereo not shown) [Example 12.12]
6.01 | CC(=O)NC(C)Cc1ccc(C#Cc2cnc(NCc3cccc(C)c3)nc2)cc1 (stereo not shown) [Example 13.56]
5.96 | CC(=O)NC(C)Cc1ccc(C#Cc2cnc(OCCF)nc2)cc1 (stereo not shown) [Example 12.31]
6.48 | CC(=O)NC(C)Cc1ccc(C#Cc2cnc(N[C@H]3CCc4ccccc43)nc2)cc1 (stereo partly shown) [Example 13.62]
6.64 | CCCOc1ncc(C#Cc2ccc(CC(C)NC(C)=O)cc2)cn1 (stereo not shown) [Example 12.15]
4.66 | CC(=O)NC(C)Cc1ccc(C#Cc2ccc(OCCN3CCCCC3)cc2)cc1 (stereo not shown) [Example 9.5]

pIC50 | SMILES
5.92 | CC(=O)NC(C)Cc1ccc(C#Cc2cnc(OCCC(C)C)nc2)cc1 (stereo not shown) [Example 12.19]
6.85 | CCC(C)Oc1ccc(C#Cc2ccc(CCC(C)NC(C)=O)cc2)cc1 (stereo not shown) [Example 14.15]
5.35 | C[C@H](NC(=O)C1CC1)c1ccc(C#Cc2cnc(OCC3CC3)nc2)cc1 [Example 12.58]
6.89 | CC(CNC(=O)N(C)C)c1ccc(C#Cc2cnc(OC3CCC3)nc2)cc1 (stereo not shown) [Example 33.2]
5.44 | CCC(C)Oc1nccc(C#Cc2ccc(CC(C)NC(C)=O)cc2)n1 (stereo not shown) [Example 12.7]
5.66 | CCCOc1nccc(C#Cc2ccc(CC(C)NC(C)=O)cc2)n1 (stereo not shown) [Example 12.8]
7.10 | CC(=O)NC(C)Cc1ccc(C#Cc2ccc(OCC3CC3)cc2)cc1 (stereo not shown) [Example 9.20]
5.49 | COCCN(C)c1ncc(C#Cc2ccc(CC(C)NC(C)=O)cc2)cn1 (stereo not shown) [Example 13.1, N-(1-(4-((2-((2-Methoxyethyl)(methyl)amino)pyrimidin-5-yl)ethynyl)phenyl)propan-2-yl)acetamide]
4.92 | CC(=O)NC(C)Cc1ccc(C#Cc2cccc(C(=O)N(C)CC(=O)OC(C)(C)C)c2)cc1 (stereo not shown) [Example 8.47]
6.16 | CC(=O)NC(C)Cc1ccc(C#Cc2ccnc(N3CCCC(C(F)(F)F)C3)n2)cc1 (stereo not shown) [Example 11.36]
6.72 | CC(=O)NC(C)Cc1ccc(C#Cc2ccc(OC3CCCOC3)cc2)cc1 (stereo not shown) [Example 9.29]
4.86 | CCOc1ccc(C#Cc2ccc(CC(C)N(C)C(C)=O)cc2)cc1 (stereo not shown) [Example 18.1, N-{2-[4-(4-Ethoxy-phenylethynyl)-phenyl]-1-methyl-ethyl}-N-methyl-acetamide]
6.48 | CC(=O)NC(C)Cc1ccc(C#Cc2ccnc(N(C)C3CCCC3)n2)cc1 (stereo not shown) [30.1]
5.64 | CCOc1ccc(C#Cc2ccc(CCNC(C)=O)cc2)cn1 [Example 14.36]
5.28 | CCNc1ncc(C#Cc2ccc(CC(C)NC(=O)C3CC3)cc2)cn1 (stereo not shown) [Example 13.52]
5.62 | CC(Cc1ccc(C#Cc2cnc(OC(C)C)nc2)cc1)NC(=O)C1CC1 (stereo not shown) [Example 12.25]
5.74 | CC(=O)NC(C)Cc1ccc(C#Cc2cccc(Oc3cncnc3)c2)cc1 (stereo not shown) [Example 10.3]
6.89 | CC(=O)N[C@@H](C)Cc1ccc(C#Cc2ccc(OC(C)C)cc2)cc1 [Example 23.2]
6.48 | CC(=O)NC(C)Cc1ccc(C#Cc2ccnc(N(C)CC(C)C)n2)cc1 (stereo not shown) [Example 11.15]
